Laboratory results reported in patent US12338220B2, “Antiviral pyrazolopiridinone compounds” (Novartis AG, priority 2019, dated 2025).
Read-outs that look alike come from different tables or passages of the source.

Columns and labels:
CMV-polymerase = CMV-polymerase (Human cytomegalovirus (strain AD169) (HHV-5) (Human herpesvirus 5), UniProt P08546); assay: biochemical
CMV = assay: microbe, parasite or virus in culture; type: cell-based
[1] = read-out: CMV-polymerase Biochemical IC50
[2] = Human betaherpesvirus 5, 72 h, read-out: CMV-Luc Cellular EC50, NN-NHDF cells, MOI 1, 72 hrs
[3] = NN-NHDF cells, MOI 1, 72 hrs, read-out: CMV-Luc Cellular EC50

Structure (SMILES) | IC50 (CMV-polymerase; [1]) [µM] | EC50 (CMV; [2]) [µM] | other results
CC(C)(O)Cn1nc(C(=O)NCc2ccc(C#N)cc2)c2c1C(=O)N(CC1(S(=O)(=O)C(C)(C)CO)CC1)CC2 [Example 235, N-(4-Cyanobenzyl)-6-((1-((1-hydroxy-2-methylpropan-2-yl)sulfonyl)cyclopropyl)methyl)-1-(2-hydroxy-2-methylpropyl)-7-oxo-4,5,6,7-tetrahydro-1H-pyrazolo[3,4-c]pyridine-3-carboxamide] | 0.001 | 0.031 | 
CC1Cc2c(C(=O)NCc3ccc(C#N)cc3)nn(C)c2C(=O)N1CC1(S(C)(=O)=O)CC1 (single isomer, unassigned) [Example 41, (R)- or (S)-N-(4-cyanobenzyl)-1,5-dimethyl-6-((1-(methylsulfonyl)cyclopropyl)methyl)-7-oxo-4,5,6,7-tetrahydro-1H-pyrazolo[3,4-c]pyridine-3-carboxamide] | 9.77 |  | 
CNS(=O)(=O)C1(CN2CCc3c(C(=O)NCc4ccc(Cl)cc4)nn(C)c3C2=O)CC1 [Example 151, N-(4-Chlorobenzyl)-1-methyl-6-((1-(N-methylsulfamoyl)cyclopropyl)methyl)-7-oxo-4,5,6,7-tetrahydro-1H-pyrazolo[3,4-c]pyridine-3-carboxamide] | 0.008 | 0.064 | 
Cn1nc(C(=O)NCc2ccc(C#N)cc2)c2c1C(=O)N(CC1(S(=O)(=O)NCCN)CC1)CC2 [Example 135, 6-((1-(N-(2-Aminoethyl)sulfamoyl)cyclopropyl)methyl)-N-(4-cyanobenzyl)-1-methyl-7-oxo-4,5,6,7-tetrahydro-1H-pyrazolo[3,4-c]pyridine-3-carboxamide] | 0.062 | 0.536 | 
Cn1nc(C(=O)NCc2ccc(C#N)cc2)c2c1C(=O)N(CC1(S(=O)(=O)N3C[C@H](N)[C@@H](O)C3)CC1)CC2 [Example 140, 6-((1-(((3S,4S)-3-Amino-4-hydroxypyrrolidin-1-yl)sulfonyl)cyclopropyl)methyl)-N-(4-cyanobenzyl)-1-methyl-7-oxo-4,5,6,7-tetrahydro-1H-pyrazolo[3,4-c]pyridine-3-carboxamide] | 0.011 | 0.418 | 
Cn1nc(C(=O)NCc2ccc(C#N)cc2)c2c1C(=O)N(CC1(S(=O)(=O)N3CC[C@H](O)C3)CC1)CC2 [Example 127, (S)-N-(4-Cyanobenzyl)-6-((1-((3-hydroxypyrrolidin-1-yl)sulfonyl)cyclopropyl)methyl)-1-methyl-7-oxo-4,5,6,7-tetrahydro-1H-pyrazolo[3,4-c]pyridine-3-carboxamide] | 0.004 | 0.122 | 
CS(=O)(=O)C1(CN2CCc3c(C(=O)NCc4ccc(C#N)cc4)nn(CC4(CO)CC4)c3C2=O)CC1 [Example 48, N-(4-Cyanobenzyl)-1-((1-(hydroxymethyl)cyclopropyl)methyl)-6-((1-(methylsulfonyl)cyclopropyl)methyl)-7-oxo-4,5,6,7-tetrahydro-1H-pyrazolo[3,4-c]pyridine-3-carboxamide] |  | 0.331 | IC50 (CMV-polymerase; CMV-polymerase Biochemical IC50): 0.011 µM
CN(C)CC(O)C(C)(C)S(=O)(=O)C1(CN2CCc3c(C(=O)NCc4ccc(Cl)cc4)nn(C)c3C2=O)CC1 (single isomer, unassigned) [Example 206, (R)- or (S)-N-(4-Chlorobenzyl)-6-((1-((4-(dimethylamino)-3-hydroxy-2-methylbutan-2-yl)sulfonyl)cyclopropyl)methyl)-1-methyl-7-oxo-4,5,6,7-tetrahydro-1H-pyrazolo[3,4-c]pyridine-3-carboxamide] |  | 0.071 | 
CC(N)COCC(C)(C)S(=O)(=O)C1(CN2CCc3c(C(=O)NCc4ccc(Cl)cc4)nn(C)c3C2=O)CC1 (single isomer, unassigned) [Example 97, (R)- or (S)-6-((1-((1-(2-Aminopropoxy)-2-methylpropan-2-yl)sulfonyl)cyclopropyl)methyl)-N-(4-chlorobenzyl)-1-methyl-7-oxo-4,5,6,7-tetrahydro-1H-pyrazolo[3,4-c]pyridine-3-carboxamide] |  | 0.008 | 
Cn1nc(C(=O)OCc2ccc(C#N)cc2)c2c1C(=O)N(CC1(S(=O)(=O)C3CC3)CC1)CC2 [Example 24, 4-cyanobenzyl 6-((1-(cyclopropylsulfonyl)cyclopropyl)methyl)-1-methyl-7-oxo-4,5,6,7-tetrahydro-1H-pyrazolo[3,4-c]pyridine-3-carboxylate] |  | 0.197 | 
CC(N)COCC(C)(C)S(=O)(=O)C1(CN2CCc3c(C(=O)NCc4ccc(C#N)cc4)nn(C)c3C2=O)CC1 (single isomer, unassigned) [Example 99, (R)- or (S)-6-((1-((1-(2-Aminopropoxy)-2-methylpropan-2-yl)sulfonyl)cyclopropyl)methyl)-N-(4-cyanobenzyl)-1-methyl-7-oxo-4,5,6,7-tetrahydro-1H-pyrazolo[3,4-c]pyridine-3-carboxamide] |  | 0.014 | 
N#Cc1ccc(CNC(=O)c2n[nH]c3c2CCN(CC2(S(=O)(=O)C4CC4)CC2)C3=O)cc1 [Example 45, N-(4-Cyanobenzyl)-6-((1-(cyclopropylsulfonyl)cyclopropyl)methyl)-7-oxo-4,5,6,7-tetrahydro-1H-pyrazolo[3,4-c]pyridine-3-carboxamide] |  |  | EC50 (CMV; [3]): 0.146 µM
Cn1nc(C(=O)NCc2ccc(C#N)cc2)c2c1C(=O)N(CC1(S(=O)(=O)C(C)(CN)CO)CC1)CC2 (single isomer, unassigned) [Example 184, (R)- or (S)-6-((1-((1-Amino-3-hydroxy-2-methylpropan-2-yl)sulfonyl)cyclopropyl)methyl)-N-(4-cyanobenzyl)-1-methyl-7-oxo-4,5,6,7-tetrahydro-1H-pyrazolo[3,4-c]pyridine-3-carboxamide] |  | 0.165 | 
CNCC(O)C(C)(C)S(=O)(=O)C1(CN2CCc3c(C(=O)NCc4ccc(C#N)cc4)nn(C)c3C2=O)CC1 (single isomer, unassigned) [Example 202, (R)- or (S)-N-(4-Cyanobenzyl)-6-((1-((3-hydroxy-2-methyl-4-(methylamino)butan-2-yl)sulfonyl)cyclopropyl)methyl)-1-methyl-7-oxo-4,5,6,7-tetrahydro-1 H-pyrazolo[3,4-c]pyridine-3-carboxamide] |  | 0.03 | 
CNCC(O)C(C)(C)S(=O)(=O)C1(CN2CCc3c(C(=O)NCc4ccc(Cl)cc4)nn(C)c3C2=O)CC1 (single isomer, unassigned) [Example 204, (R)- or (S)-N-(4-Chlorobenzyl)-6-((1-((3-hydroxy-2-methyl-4-(methylamino)butan-2-yl)sulfonyl)cyclopropyl)methyl)-1-methyl-7-oxo-4,5,6,7-tetrahydro-1 H-pyrazolo[3,4-c]pyridine-3-carboxamide] |  | 0.011 | 
Cn1nc(C(=O)NCc2ccc(Cl)cc2)c2c1C(=O)N(CC1(S(=O)(=O)C(C)(CN)CO)CC1)CC2 (centres unmarked) [Example 186, 6-((1-((1-Amino-3-hydroxy-2-methylpropan-2-yl)sulfonyl)cyclopropyl)methyl)-N-(4-chlorobenzyl)-1-methyl-7-oxo-4,5,6,7-tetrahydro-1H-pyrazolo[3,4-c]pyridine-3-carboxamide] |  |  | EC50 (CMV; Human betaherpesvirus 5, 72 h, NN-NHDF cells, MOI 1, 72 hrs, read-out: CMV-Luc Cellular EC50): 0.09 µM
Cn1nc(C(=O)NCc2ccc(C#N)cc2)c2c1C(=O)N(CC1(S(=O)(=O)C3CCOC3)CC1)CC2 (single isomer, unassigned) [Example 170, (R)- or (S)-N-(4-Cyanobenzyl)-1-methyl-7-oxo-6-((1-((tetrahydrofuran-3-yl)sulfonyl)cyclopropyl)methyl)-4,5,6,7-tetrahydro-1H-pyrazolo[3,4-c]pyridine-3-carboxamide] |  | 0.124 | 
CN(C(C)(CO)CO)S(=O)(=O)C1(CN2CCc3c(C(=O)NCc4ccc(Cl)cc4)nn(C)c3C2=O)CC1 [Example 154, N-(4-chlorobenzyl)-6-((1-(N-(1,3-dihydroxy-2-methylpropan-2-yl)-N-methylsulfamoyl)cyclopropyl)methyl)-1-methyl-7-oxo-4,5,6,7-tetrahydro-1H-pyrazolo[3,4-c]pyridine-3-carboxamide] |  | 0.083 | 
Cn1nc(C(=O)NCc2ccc(C#N)cc2)c2c1C(=O)N(CC1(S(=O)(=O)C(C)(C)C(O)CN)CC1)CC2 (single isomer, unassigned) [Example 199, (R)- or (S)-6-((1-((4-Amino-3-hydroxy-2-methylbutan-2-yl)sulfonyl)cyclopropyl)methyl)-N-(4-cyanobenzyl)-1-methyl-7-oxo-4,5,6,7-tetrahydro-1H-pyrazolo[3,4-c]pyridine-3-carboxamide] |  | 0.019 | EC50 (CMV; Human betaherpesvirus 5, read-out: Cellular activity against CMV (EC50), Table 18): 0.018 µM
Cn1nc(C(=O)NCc2ccc(C#N)cc2)c2c1C(=O)N(CC1(S(=O)(=O)C(C)(C)COCCO)CC1)CC2 [Example 87, N-(4-Cyanobenzyl)-6-((1-((1-(2-hydroxyethoxy)-2-methylpropan-2-yl)sulfonyl)cyclopropyl)methyl)-1-methyl-7-oxo-4,5,6,7-tetrahydro-1H-pyrazolo[3,4-c]pyridine-3-carboxamide] |  |  | EC50 (CMV; [3]): 0.044 µM
CC(N)COCC(C)(C)S(=O)(=O)C1(CN2CCc3c(C(=O)NCc4ccc(Cl)cc4)nn(C)c3C2=O)CC1 (single isomer, unassigned) [Example 98, (R)- or (S)-6-((1-((1-(2-Aminopropoxy)-2-methylpropan-2-yl)sulfonyl)cyclopropyl)methyl)-N-(4-chlorobenzyl)-1-methyl-7-oxo-4,5,6,7-tetrahydro-1H-pyrazolo[3,4-c]pyridine-3-carboxamide] |  |  | EC50 (CMV; read-out: CMV-Luc Cellular EC50, NN-NHDF cells, MOI 1, 72 hrs): 0.008 µM
Cn1nc(C(=O)NCc2ccc(C#N)cc2)c2c1C(=O)N(CC1(S(=O)(=O)N3CCC(C)(O)C3)CC1)CC2 (single isomer, unassigned) [Example 131, (R)- or (S)-N-(4-Cyanobenzyl)-6-((1-((3-hydroxy-3-methylpyrrolidin-1-yl)sulfonyl)cyclopropyl)methyl)-1-methyl-7-oxo-4,5,6,7-tetrahydro-1H-pyrazolo[3,4-c]pyridine-3-carboxamide] | 0.016 |  | 
